According to patent publication US4722892A, “Monoclonal antibodies against metal chelates” (priority 1984, dated 1988):
Where two headings read alike, the source gives them in different places.

Tests used:
[1] = tested on: monoclonal antibody CHA255; experiment: Association constants of metal chelates with monoclonal antibody CHA255 by equilibrium dialysis (method of Eisen), displacement of In(III)-(L)-aminobenzyl EDTA; assay type: binding, BALB/c mice; conditions: for Kd: dialysis 24h, 37°, pH 7
Text: (§1) Table I below sets forth the association constants of the two monoclonal antibodies described in Example II for a number of chelates. In Part A, the relative affinities of the antibodies for aminobenzyl EDTA complexes of In(III) and other ions are shown. In Part B, the binding constants of the antibodies for In(III) complexes with other chelating agents are shown. The metals selected for comparison were trivalent ions similar to In(III) and divalent ions whose EDTA complexes form structures similar to that of an In-EDTA complex. The binding constants for the chelates were determined by the method of Eisen, Meth. Med. Res., 10, 106 (1964) by dialysis of the antibody and metal chelates to near equilibrium (24h) at 37° in 0.05M 2-hydroxyethyl-piperazine-ethanesulfonate, 0.lM NaCl, 0.1% NaN3 and 0.1% bovine serum albumin at pH 7. The concentration of antibody binding sites inside the dialysis bag was 10^-7 M, and the concentration of free In(III)-(L)-aminobenzyl EDTA was in the same range.
(§2) Known amounts of another chelate were added to the solution after equilibrium until roughly half of the bound indium chelate had been displaced at equilibrium.

[2] = tested on: monoclonal antibody CHB235; experiment: Association constants of metal chelates with monoclonal antibody CHB235 by equilibrium dialysis (method of Eisen), displacement of In(III)-(L)-aminobenzyl EDTA; assay type: binding, BALB/c mice; conditions: dialysis 24h, 37°, pH 7
Text: as §1, §2

[3] = metal-EDTA chelate (not the L-Benzyl-EDTA chelate); from Sillen and Martell / Martell and Smith; cited from earlier work
[4] = Table 1 Part B, indium chelates with different chelators, read-out: K A^CHA255 (antibody binding constant for each indium chelate) (converted)
[5] = Table 1 Part B, indium chelates with different chelators, read-out: K A^CHA235 (antibody binding constant for each indium chelate) (converted)

Which results are given for `O=C(O)CN(CCO)CCN(CC(=O)O)CC(=O)O` [HED3A]?
Kd [1, 4]: 23.8 nM; Kd [2, 5]: 25 nM

For In(III)-(L)-aminobenzyl EDTA, which Kd ([1]; Table 1 Part A, coefficient of variation in parentheses, read-out: K A^CHA255 (antibody binding constant for metal-L-Benzyl-EDTA chelate) (converted)) is on record?
The Kd was 0.25 nM.

What about the Kd [1, 4] of the same molecule?
Its Kd is 0.25 nM.

What about the “affinity (KA)” value ([1]; summary statement, antibody not named) of the same molecule?
Its value is “greater than 10^9 M^-1”.

And the Kd ([2]; Table 1 Part A, coefficient of variation on next line, read-out: K A^CHB235 (antibody binding constant for metal-L-Benzyl-EDTA chelate) (converted))?
The Kd was 9.09 nM.

What about the Kd [2, 5] of the same molecule?
Its Kd is 9.09 nM.

And the “log K S^EDTA(M) (logarithm of the stability constant for each metal-EDTA chelate)” value [3]?
The value was 25.0.

With `O=C(O)CN(CC(=O)O)CC(Cc1ccccc1)N(CC(=O)O)CC(=O)O` [D-Benzyl-EDTA] as the molecule, how does the Kd [1, 4] read?
The Kd was 15.9 nM.

What about the Kd [2, 5] of the same molecule?
The Kd was 27.8 nM.

What does the source list for `O=C(O)CN(CCN(CC(=O)O)CC(=O)O)CC(=O)O` [EDTA]?
Kd [1, 4]: 5.88 nM; Kd [2, 5]: 7.69 nM
